Assay results taken from US8952024B2, “Herbicidal pyrimidone derivatives” (E I du Pont de Nemours and Company, priority 2009, dated 2015).

Legend:
Test in all cases: Test D pre-/postemergence plant response
Format in all cases: in vivo
[1] = system: spanishneedles (Bidens bipinnata)
In short: (§1)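 Seeds were sown in a loam–sand blend and sprayed preemergence with compound in a non-phytotoxic solvent mixture containing surfactant; plants at 2–18 cm (1- to 4-leaf stage) received the same formulation postemergence. After 14 to 21 days in a greenhouse, injury was rated visually against untreated controls (0 = no effect, 100 = complete control).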

[2] = system: groundsel (common groundsel, Senecio vulgaris); conditions: Postemergence
In short: as §1

[3] = system: nutsedge (purple nutsedge, Cyperus rotundus)
In short: as §1

[4] = system: prickly sida (Sida spinosa)
In short: as §1

[5] = system: johnsongrass (Sorghum halepense)
In short: as §1

[6] = system: bermudagrass (Cynodon dactylon)
In short: as §1

[7] = system: naked crabgrass (Digitaria nuda)
In short: as §1

[8] = system: guineagrass (Panicum maximum)
In short: as §1

[9] = system: field bindweed (Convolvulus arvensis)
In short: as §1

[10] = system: itchgrass (Rottboellia cochinchinensis)
In short: as §1

[11] = system: mallow (common mallow, Malva sylvestris); conditions: Postemergence
In short: as §1

[12] = system: Italian ryegrass (Lolium multiflorum)
In short: as §1

[13] = system: sowthistle (common sowthistle, Sonchus oleraceous)
In short: as §1

[14] = system: barnyardgrass (Echinochloa crus-galli)
In short: as §1

[15] = system: green foxtail (Setaria viridis)
In short: as §1

[16] = Postemergence, 16 g ai/ha, scale 0 to 100
[17] = Postemergence, 31 g ai/ha, scale 0 to 100
[18] = Postemergence, 125 g ai/ha, scale 0 to 100 (0 no effect, 100 complete control)
[19] = Postemergence, 62 g ai/ha, scale 0 to 100 (0 no effect, 100 complete control)
[20] = Preemergence, 16 g ai/ha, scale 0 to 100, 0 no effect, 100 complete control
[21] = Preemergence, 31 g ai/ha, scale 0 to 100 (0 no effect, 100 complete control)
[22] = Preemergence, 125 g ai/ha, scale 0 to 100
[23] = 125 g ai/ha, scale 0 to 100 (0 no effect, 100 complete control)
[24] = 62 g ai/ha, scale 0 to 100 (0 no effect, 100 complete control)
[25] = Preemergence, 62 g ai/ha, scale 0 to 100
[26] = Postemergence, 31 g ai/ha, scale 0 to 100 (0 no effect, 100 complete control)

Cc1ccc(Cl)cc1-n1c(-c2ccccc2)ncc(C(=O)C2=C(O)CCCC2=O)c1=O [Compound 52]
Plant response rating, Spanishneedles [1, 16]: 75 | Plant response rating, Spanishneedles [1, 17]: 75 | Plant response rating, Spanishneedles [1, 18]: 80 | Plant response rating, Spanishneedles [1, 19]: 80 | Plant response rating, Spanishneedles [1, 20]: 35 | Plant response rating, Spanishneedles [1, 21]: 70 | Plant response rating, Spanishneedles [1, 22]: 98 | Plant response rating, Groundsel ([2]; 16 g ai/ha, scale 0 to 100): 100 | Plant response rating, Groundsel ([2]; 31 g ai/ha, scale 0 to 100): 100 | Plant response rating, Groundsel [2, 23]: 100 | Plant response rating, Groundsel [2, 24]: 100 | Plant response rating, Nutsedge, Purple [3, 16]: 0 | Plant response rating, Nutsedge, Purple [3, 17]: 20 | Plant response rating, Nutsedge, Purple [3, 18]: 40 | Plant response rating, Nutsedge, Purple [3, 19]: 35 | Plant response rating, Nutsedge, Purple [3, 20]: 0 | Plant response rating, Nutsedge, Purple [3, 21]: 5 | Plant response rating, Nutsedge, Purple [3, 25]: 30 | Plant response rating, Nutsedge, Purple [3, 22]: 40 | Plant response rating, Prickly Sida [4, 16]: 65 | Plant response rating, Prickly Sida [4, 17]: 65 | Plant response rating, Prickly Sida [4, 18]: 90 | Plant response rating, Prickly Sida [4, 19]: 80 | Plant response rating, Prickly Sida [4, 20]: 0 | Plant response rating, Prickly Sida [4, 21]: 0 | Plant response rating, Prickly Sida [4, 25]: 50 | Plant response rating, Prickly Sida [4, 22]: 100 | Plant response rating, Johnsongrass [5, 16]: 65 | Plant response rating, Johnsongrass [5, 17]: 75 | Plant response rating, Johnsongrass [5, 19]: 85 | Plant response rating, Johnsongrass [5, 20]: 0 | Plant response rating, Johnsongrass [5, 21]: 0 | Plant response rating, Johnsongrass [5, 25]: 75 | Plant response rating, Johnsongrass [5, 22]: 95 | Plant response rating, Bermudagrass [6, 16]: 75 | Plant response rating, Bermudagrass [6, 26]: 75 | Plant response rating, Bermudagrass [6, 18]: 80 | Plant response rating, Bermudagrass [6, 19]: 75 | Plant response rating, Bermudagrass [6, 20]: 30 | Plant response rating, Bermudagrass [6, 21]: 70 | Plant response rating, Bermudagrass [6, 25]: 90 | Plant response rating, Bermudagrass [6, 22]: 100 | Plant response rating, Crabgrass, Naked [7, 16]: 70 | Plant response rating, Crabgrass, Naked [7, 17]: 75 | Plant response rating, Crabgrass, Naked [7, 18]: 95 | Plant response rating, Crabgrass, Naked [7, 19]: 95 | Plant response rating, Crabgrass, Naked [7, 20]: 0 | Plant response rating, Crabgrass, Naked [7, 21]: 0 | Plant response rating, Crabgrass, Naked [7, 25]: 20 | Plant response rating, Crabgrass, Naked [7, 22]: 80 | Plant response rating, Guineagrass [8, 16]: 50 | Plant response rating, Guineagrass [8, 17]: 70 | Plant response rating, Guineagrass [8, 18]: 75 | Plant response rating, Guineagrass [8, 19]: 75 | Plant response rating, Guineagrass [8, 20]: 0 | Plant response rating, Guineagrass [8, 25]: 50 | Plant response rating, Field Bindweed [9, 16]: 50 | Plant response rating, Field Bindweed [9, 17]: 70 | Plant response rating, Field Bindweed [9, 18]: 70 | Plant response rating, Field Bindweed [9, 19]: 70 | Plant response rating, Field Bindweed [9, 20]: 20 | Plant response rating, Field Bindweed [9, 25]: 20 | Plant response rating, Field Bindweed [9, 22]: 50 | Plant response rating, Itchgrass [10, 16]: 25 | Plant response rating, Itchgrass [10, 17]: 50 | Plant response rating, Itchgrass [10, 18]: 65 | Plant response rating, Itchgrass [10, 19]: 65 | Plant response rating, Itchgrass [10, 20]: 0 | Plant response rating, Itchgrass [10, 21]: 0 | Plant response rating, Itchgrass [10, 25]: 0 | Plant response rating, Itchgrass [10, 22]: 5 | Plant response rating, Mallow ([11]; 16 g ai/ha, scale 0 to 100): 50 | Plant response rating, Mallow ([11]; 31 g ai/ha, scale 0 to 100): 65 | Plant response rating, Mallow [11, 23]: 75 | Plant response rating, Mallow [11, 24]: 65 | Plant response rating, Ryegrass, Italian [12, 16]: 0 | Plant response rating, Ryegrass, Italian [12, 17]: 0 | Plant response rating, Ryegrass, Italian [12, 18]: 35 | Plant response rating, Ryegrass, Italian [12, 19]: 15 | Plant response rating, Ryegrass, Italian [12, 20]: 0 | Plant response rating, Ryegrass, Italian [12, 21]: 0 | Plant response rating, Ryegrass, Italian [12, 22]: 15 | Plant response rating, Sowthistle [13, 16]: 80 | Plant response rating, Sowthistle [13, 17]: 95 | Plant response rating, Sowthistle [13, 18]: 100 | Plant response rating, Sowthistle [13, 19]: 98 | Plant response rating, Sowthistle [13, 20]: 0 | Plant response rating, Sowthistle [13, 21]: 80 | Plant response rating, Sowthistle [13, 22]: 100 | Plant response rating, Barnyardgrass [14, 16]: 75 | Plant response rating, Barnyardgrass [14, 26]: 75 | Plant response rating, Barnyardgrass [14, 18]: 80 | Plant response rating, Barnyardgrass [14, 19]: 75 | Plant response rating, Barnyardgrass [14, 20]: 0 | Plant response rating, Barnyardgrass [14, 21]: 0 | Plant response rating, Barnyardgrass [14, 25]: 0 | Plant response rating, Barnyardgrass [14, 22]: 10 | Plant response rating, Foxtail, Green [15, 16]: 70 | Plant response rating, Foxtail, Green [15, 17]: 70 | Plant response rating, Foxtail, Green [15, 18]: 95 | Plant response rating, Foxtail, Green [15, 19]: 85 | Plant response rating, Foxtail, Green [15, 20]: 0 | Plant response rating, Foxtail, Green [15, 21]: 0 | Plant response rating, Foxtail, Green [15, 25]: 0 | Plant response rating, Foxtail, Green [15, 22]: 15
